Measured values published in patent US8940724B2, “Quinoline derivitives and their uses” (Amgen Inc., priority 2009, dated 2015).
pKi: −log10 of the molar value.

These molecules were tested against T1, PI3Kδ (Homo sapiens, UniProt O00329) (assay: PI3Kδ Alphascreen assay).
T1 construct: Full length p110 subunits of PI3k α, β and δ, N-terminally labeled with polyHis tag; polyHis (N); made in house; host or cells: Sf9 insect cells (baculovirus)
T1 sequence (O00329 whole entry): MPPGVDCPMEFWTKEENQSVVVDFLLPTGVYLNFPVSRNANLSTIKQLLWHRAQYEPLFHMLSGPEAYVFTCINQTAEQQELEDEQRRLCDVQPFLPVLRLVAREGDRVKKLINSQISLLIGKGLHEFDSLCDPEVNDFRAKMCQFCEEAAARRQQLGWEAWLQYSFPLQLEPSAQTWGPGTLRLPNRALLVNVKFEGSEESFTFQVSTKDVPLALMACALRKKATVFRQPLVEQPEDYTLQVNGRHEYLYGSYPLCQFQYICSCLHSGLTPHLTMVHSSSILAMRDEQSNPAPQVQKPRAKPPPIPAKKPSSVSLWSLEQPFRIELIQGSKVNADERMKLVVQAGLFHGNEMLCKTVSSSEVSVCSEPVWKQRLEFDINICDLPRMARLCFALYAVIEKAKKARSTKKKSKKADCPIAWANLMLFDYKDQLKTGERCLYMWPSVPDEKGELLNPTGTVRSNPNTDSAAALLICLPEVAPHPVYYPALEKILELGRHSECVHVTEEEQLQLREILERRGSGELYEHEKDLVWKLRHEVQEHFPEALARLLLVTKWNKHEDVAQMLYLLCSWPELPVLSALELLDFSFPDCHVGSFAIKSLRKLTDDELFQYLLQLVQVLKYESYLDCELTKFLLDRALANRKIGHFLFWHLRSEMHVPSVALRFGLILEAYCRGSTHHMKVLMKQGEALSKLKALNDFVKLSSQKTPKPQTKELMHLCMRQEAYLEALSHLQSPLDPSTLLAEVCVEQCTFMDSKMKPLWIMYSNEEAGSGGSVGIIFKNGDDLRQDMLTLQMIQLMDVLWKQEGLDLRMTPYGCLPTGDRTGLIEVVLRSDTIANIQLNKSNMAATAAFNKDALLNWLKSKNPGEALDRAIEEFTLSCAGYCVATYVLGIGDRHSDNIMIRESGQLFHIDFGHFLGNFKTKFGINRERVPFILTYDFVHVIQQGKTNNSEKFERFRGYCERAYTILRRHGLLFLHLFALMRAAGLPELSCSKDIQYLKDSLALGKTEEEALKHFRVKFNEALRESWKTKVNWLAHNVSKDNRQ
T1 sequence (P27986 whole entry partner): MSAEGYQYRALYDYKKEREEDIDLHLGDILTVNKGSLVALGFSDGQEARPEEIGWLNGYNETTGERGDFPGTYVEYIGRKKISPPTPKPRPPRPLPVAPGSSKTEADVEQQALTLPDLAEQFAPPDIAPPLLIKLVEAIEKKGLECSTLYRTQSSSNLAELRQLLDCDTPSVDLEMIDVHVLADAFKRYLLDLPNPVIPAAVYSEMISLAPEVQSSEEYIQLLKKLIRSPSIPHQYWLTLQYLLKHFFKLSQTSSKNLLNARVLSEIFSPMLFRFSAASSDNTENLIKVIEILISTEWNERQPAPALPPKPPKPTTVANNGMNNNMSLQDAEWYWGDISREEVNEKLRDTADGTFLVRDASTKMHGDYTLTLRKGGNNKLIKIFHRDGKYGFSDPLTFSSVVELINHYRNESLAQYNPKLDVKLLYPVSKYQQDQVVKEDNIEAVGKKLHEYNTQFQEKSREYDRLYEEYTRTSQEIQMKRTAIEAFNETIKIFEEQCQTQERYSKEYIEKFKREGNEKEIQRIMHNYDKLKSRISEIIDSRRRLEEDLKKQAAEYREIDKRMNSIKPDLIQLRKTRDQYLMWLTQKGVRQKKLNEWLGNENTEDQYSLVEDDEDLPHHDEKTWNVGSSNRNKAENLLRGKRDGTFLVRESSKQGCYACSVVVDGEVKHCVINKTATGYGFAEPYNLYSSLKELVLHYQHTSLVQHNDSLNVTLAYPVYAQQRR
Assay type: biochemical
Cc1c(-c2ccccn2)nc2ncccc2c1Nc1cncc(N2CCOCC2)c1 [3-methyl-N-(5-(4-morpholinyl)-3-pyridinyl)-2-(2-pyridinyl)-1,8-naphthyridin-4-amine] gave a pKi of 6.15.
Work on Cc1c(-c2ccccn2)nc2cc(F)cc(F)c2c1Nc1cc(N2CCOCC2)cnc1-c1ccc(C#N)cc1 [4-(3-((5,7-difluoro-3-methyl-2-(2-pyridinyl)-4-quinolinyl)-amino)-5-(4-morpholinyl)-2-pyridinyl)benzonitrile] yielded a pKi of 8.26.
Cc1c(-c2ccccn2)nc2cc(F)cc(F)c2c1Nc1cc(N2CCOCC2)cnc1-c1ccc(O)cc1 [4-(3-((5,7-difluoro-3-methyl-2-(2-pyridinyl)-4-quinolinyl)-amino)-5-(4-morpholinyl)-2-pyridinyl)phenol] was tested, and the pKi was 9.55.
In the case of Cc1c(N2CCN(C(C)C)C(=O)C2)nc2cc(F)cc(F)c2c1Nc1cc(N2CCOCC2)cnc1N1CCOCC1 [4-(4-((2,5-di-4-morpholinyl-3-pyridinyl)amino)-5,7-difluoro-3-methyl-2-quinolinyl)-1-(1-methylethyl)-2-piperazinone], the pKi was 8.62.
CCN1CCN(c2nc3cc(F)cc(F)c3c(Nc3cc(N4CCOCC4)cnc3N3CCOCC3)c2C)CC1=O [4-(4-((2,5-di-4-morpholinyl-3-pyridinyl)amino)-5,7-difluoro-3-methyl-2-quinolinyl)-1-ethyl-2-piperazinone] was tested, and the pKi was 8.89.
In the case of CCCN1CCN(c2nc3cc(F)cc(F)c3c(Nc3cc(N4CCOCC4)cnc3N3CCOCC3)c2C)CC1=O [4-(4-((2,5-di-4-morpholinyl-3-pyridinyl)amino)-5,7-difluoro-3-methyl-2-quinolinyl)-1-propyl-2-piperazinone], the pKi was 8.74.
For Cc1c(N2CCN(C(=O)N(C)C)CC2)nc2cc(F)cc(F)c2c1N(C(=O)N(C)C)c1cncc(N2CCOCC2)c1 [4-(4-((dimethylcarbamoyl)(5-(4-morpholinyl)-3-pyridinyl)-amino)-5,7-difluoro-3-methyl-2-quinolinyl)-N,N-dimethyl-1-piperazinecarboxamide], the pKi was 7.09.
Cc1c(N2CCN(C(C)C)C(=O)C2)nc2cc(F)cc(F)c2c1Nc1cncc(N2CCOCC2)c1 [4-(5,7-difluoro-3-methyl-4-((5-(4-morpholinyl)-3-pyridinyl)-amino)-2-quinolinyl)-1-(1-methylethyl)-2-piperazinone] was tested, and the pKi was 7.62.
With CCN1CCN(c2nc3cc(F)cc(F)c3c(Nc3cncc(N4CCOCC4)c3)c2C)CC1=O [4-(5,7-difluoro-3-methyl-4-((5-(4-morpholinyl)-3-pyridinyl)-amino)-2-quinolinyl)-1-ethyl-2-piperazinone] the pKi was 7.88.
CCCN1CCN(c2nc3cc(F)cc(F)c3c(Nc3cncc(N4CCOCC4)c3)c2C)CC1=O [4-(5,7-difluoro-3-methyl-4-((5-(4-morpholinyl)-3-pyridinyl)-amino)-2-quinolinyl)-1-propyl-2-piperazinone] gave a pKi of 8.04.
Cc1c(N2CCN(C(=O)N(C)C)CC2)nc2cc(F)cc(F)c2c1Nc1cncc(N2CCOCC2)c1 [4-(5,7-difluoro-3-methyl-4-((5-(4-morpholinyl)-3-pyridinyl)-amino)-2-quinolinyl)-N,N-dimethyl-1-piperazinecarboxamide] showed a pKi of 7.14.
Work on Cc1c(N2CCN(C(=O)NC(C)C)CC2)nc2cc(F)cc(F)c2c1Nc1cncc(N2CCOCC2)c1 [4-(5,7-difluoro-3-methyl-4-((5-(4-morpholinyl)-3-pyridinyl)-amino)-2-quinolinyl)-N-(1-methylethyl)-1-piperazinecarboxamide] yielded a pKi of 7.30.
In the case of CCNC(=O)N1CCN(c2nc3cc(F)cc(F)c3c(Nc3cncc(N4CCOCC4)c3)c2C)CC1 [4-(5,7-difluoro-3-methyl-4-((5-(4-morpholinyl)-3-pyridinyl)-amino)-2-quinolinyl)-N-ethyl-1-piperazinecarboxamide], the pKi was 7.61.
CNC(=O)N1CCN(c2nc3cc(F)cc(F)c3c(Nc3cncc(N4CCOCC4)c3)c2C)CC1 [4-(5,7-difluoro-3-methyl-4-((5-(4-morpholinyl)-3-pyridinyl)-amino)-2-quinolinyl)-N-methyl-1-piperazinecarboxamide] showed a pKi of 7.78.
With Cc1c(-c2ccccn2)nc2c(C#N)cccc2c1Nc1cc(N2CCOCC2)cnc1N1CCOCC1 [4-((2,5-di-4-morpholinyl-3-pyridinyl)amino)-3-methyl-2-(2-pyridinyl)-8-quinolinecarbonitrile] the pKi was 7.26.
With Cc1c(-c2ccccn2)nc2cc(F)cc(F)c2c1Nc1ccc(C#N)c(N2CCOCC2)c1 [4-((5,7-difluoro-3-methyl-2-(2-pyridinyl)-4-quinolinyl)amino)-2-(4-morpholinyl)benzonitrile] the pKi was 6.32.
With COc1cncc(-c2cc(C#N)c(N3CCOCC3)cc2Nc2c(C)c(-c3ccccn3)nc3cc(F)cc(F)c23)c1 [4-((5,7-difluoro-3-methyl-2-(2-pyridinyl)-4-quinolinyl)amino)-5-(5-methoxy-3-pyridinyl)-2-(4-morpholinyl)benzonitrile] the pKi was 8.10.
With COc1cncc(-c2ncc(N3CCOCC3)cc2Nc2c(C)c(-c3cc(C)ccn3)nc3c(C#N)cccc23)c1 [4-((5′-methoxy-5-(4-morpholinyl)-2,3′-bipyridin-3-yl)amino)-3-methyl-2-(4-methyl-2-pyridinyl)-8-quinolinecarbonitrile] the pKi was 6.63.
In the case of COc1cc(-c2nc3cc(F)cc(F)c3c(Nc3cncc(N4CCOCC4)c3)c2C)ccn1 [5,7-difluoro-2-(2-methoxy-4-pyridinyl)-3-methyl-N-(5-(4-morpholinyl)-3-pyridinyl)-4-quinolinamine], the pKi was 6.82.
For Cc1c(N2CCN(C(=O)c3ncc[nH]3)CC2)nc2cc(F)cc(F)c2c1Nc1cncc(N2CCOCC2)c1 [5,7-difluoro-2-(4-(1H-imidazol-2-ylcarbonyl)-1-piperazinyl)-3-methyl-N-(5-(4-morpholinyl)-3-pyridinyl)-4-quinolinamine], the pKi was 7.26.
Molecule Cc1c(N2CCN(S(=O)(=O)c3ccccc3F)CC2)nc2cc(F)cc(F)c2c1Nc1cncc(N2CCOCC2)c1 [5,7-difluoro-2-(4-((2-fluorophenyl)sulfonyl)-1-piperazinyl)-3-methyl-N-(5-(4-morpholinyl)-3-pyridinyl)-4-quinolinamine] has a pKi of 7.18.
Cc1c(N2CCN(S(=O)(=O)c3cccc(F)c3)CC2)nc2cc(F)cc(F)c2c1Nc1cncc(N2CCOCC2)c1 [5,7-difluoro-2-(4-((3-fluorophenyl)sulfonyl)-1-piperazinyl)-3-methyl-N-(5-(4-morpholinyl)-3-pyridinyl)-4-quinolinamine] gave a pKi of 7.21.
For Cc1c(-c2cc(F)ccc2S(C)(=O)=O)nc2cc(F)cc(F)c2c1Nc1cncc(N2CCOCC2)c1 [5,7-difluoro-2-(5-fluoro-2-(methylsulfonyl)phenyl)-3-methyl-N-(5-(4-morpholinyl)-3-pyridinyl)-4-quinolinamine], the pKi was 8.54.
COc1cncc(-c2nc3cc(F)cc(F)c3c(Nc3cncc(N4CCOCC4)c3)c2C)c1 [5,7-difluoro-2-(5-methoxy-3-pyridinyl)-3-methyl-N-(5-(4-morpholinyl)-3-pyridinyl)-4-quinolinamine] showed a pKi of 7.43.
In the case of Cc1c(-c2ccccc2[S@+](C)[O-])nc2cc(F)cc(F)c2c1Nc1cncc(N2CCOCC2)c1 [5,7-difluoro-3-methyl-2-(2-((S)-methylsulfinyl)phenyl)-N-(5-(4-morpholinyl)-3-pyridinyl)-4-quinolinamine], the pKi was 8.41.
